Measured values published in patent US20180099931A1 (AbbVie S.à.r.l., priority 2016, published 2018).
Like-named read-outs stand apart in the source and are kept apart here.

Target: T1, F508delCFTR (Homo sapiens, UniProt P13569, DEL508-508)
T1 construct: expressed in transfected cells; host or cells: CFBE41o- human lung-derived epithelial cells (CFBE4lo-F508delCFTR-HRP), doxycycline-inducible
Test: Cell Surface Expression-Horse Radish Peroxidase (CSE-HRP) Assay;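 on Maximum % activity (with co-corrector): co-corrector and positive control are both the same reference corrector at 2 µM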;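 on Maximum % activity (without co-corrector): percent of the 2 µM on-plate positive control corrector response above DMSO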
Type: cell-based
Details: for Maximum % activity (with co-corrector) / Emax: maximum at any tested concentration, normalized to on-plate positive control; for Emax: read-out: Maximum % activity (without co-corrector)

[1] = CSE-HRP, test compound without co-corrector, read-out: EC50 (without co-corrector)
[2] = CSE-HRP, with co-corrector (2 μM of 3-[(2R,4R)-4-({[1-(2,2-difluoro-1,3-benzodioxol-5-yl)cyclopropyl]carbonyl}amino)-7-methoxy-3,4-dihydro-2H-chromen-2-yl]benzoic acid), read-out: EC50 (with co-corrector)
[3] = CSE-HRP, with co-corrector (2 μM)

T1 sequence (P13569 with tags, fused parts or gaps DEL508-508): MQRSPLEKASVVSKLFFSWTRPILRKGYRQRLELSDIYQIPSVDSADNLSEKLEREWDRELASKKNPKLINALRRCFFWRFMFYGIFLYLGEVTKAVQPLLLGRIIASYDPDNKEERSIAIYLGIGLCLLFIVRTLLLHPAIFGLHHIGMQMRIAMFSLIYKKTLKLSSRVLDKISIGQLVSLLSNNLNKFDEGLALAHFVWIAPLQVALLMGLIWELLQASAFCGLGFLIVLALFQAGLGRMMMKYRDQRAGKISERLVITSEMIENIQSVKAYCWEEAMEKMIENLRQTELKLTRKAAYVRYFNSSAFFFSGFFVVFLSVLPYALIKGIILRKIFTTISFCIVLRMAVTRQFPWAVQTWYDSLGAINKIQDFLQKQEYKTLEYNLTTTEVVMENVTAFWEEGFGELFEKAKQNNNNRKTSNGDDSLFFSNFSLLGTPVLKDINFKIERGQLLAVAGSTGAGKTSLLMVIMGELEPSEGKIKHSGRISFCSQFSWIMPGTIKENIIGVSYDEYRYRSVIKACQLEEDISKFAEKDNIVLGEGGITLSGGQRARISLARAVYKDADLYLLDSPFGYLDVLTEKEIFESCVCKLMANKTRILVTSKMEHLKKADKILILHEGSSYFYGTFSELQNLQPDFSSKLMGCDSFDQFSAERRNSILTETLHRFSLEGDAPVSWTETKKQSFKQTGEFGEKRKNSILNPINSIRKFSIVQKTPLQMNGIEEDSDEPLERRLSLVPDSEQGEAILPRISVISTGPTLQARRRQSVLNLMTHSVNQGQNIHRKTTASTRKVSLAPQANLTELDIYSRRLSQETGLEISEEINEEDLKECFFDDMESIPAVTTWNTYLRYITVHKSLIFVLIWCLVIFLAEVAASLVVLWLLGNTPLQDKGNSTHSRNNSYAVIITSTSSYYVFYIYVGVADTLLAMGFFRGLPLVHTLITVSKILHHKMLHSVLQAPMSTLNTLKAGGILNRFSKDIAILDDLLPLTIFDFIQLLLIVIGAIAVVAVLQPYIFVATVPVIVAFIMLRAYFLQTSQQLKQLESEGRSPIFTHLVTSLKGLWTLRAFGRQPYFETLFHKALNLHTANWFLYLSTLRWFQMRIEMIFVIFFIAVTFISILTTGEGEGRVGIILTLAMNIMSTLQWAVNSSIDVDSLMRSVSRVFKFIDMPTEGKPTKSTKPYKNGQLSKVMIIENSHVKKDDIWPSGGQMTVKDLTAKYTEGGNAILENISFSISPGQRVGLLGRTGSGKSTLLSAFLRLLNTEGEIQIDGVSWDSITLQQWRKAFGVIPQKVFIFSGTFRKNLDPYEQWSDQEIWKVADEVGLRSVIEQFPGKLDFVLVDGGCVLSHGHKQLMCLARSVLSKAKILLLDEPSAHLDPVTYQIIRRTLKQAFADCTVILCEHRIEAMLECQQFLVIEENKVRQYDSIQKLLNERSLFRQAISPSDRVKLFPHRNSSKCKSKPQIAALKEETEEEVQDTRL

| SMILES | EC50 [1] [nM] | EC50 [2] [nM] | Maximum % activity (with co-corrector) [3] | Emax (CSE-HRP, without co-corrector) [%] | Emax (test compound without co-corrector) [%] | EC50 (test compound without co-corrector, read-out: EC50 (without co-corrector)) [nM] | Maximum % activity (with co-corrector) (with co-corrector (2 μM of 3-[(2R,4R)-4-({[1-(2,2-difluoro-1,3-benzodioxol-5-yl)cyclopropyl]carbonyl}amino)-7-methoxy-3,4-dihydro-2H-chromen-2-yl]benzoic acid)) | EC50 (with co-corrector (2 μM of 3-[(2R,4R)-4-({[1-(2,2-difluoro-1,3-benzodioxol-5-yl)cyclopropyl]carbonyl}amino)-7-methoxy-3,4-dihydro-2H-chromen-2-yl]benzoic acid), read-out: EC50 (with co-corrector)) [nM] |
| --- | --- | --- | --- | --- | --- | --- | --- | --- |
| COc1ccc(C(C)(C)C)cc1CN[C@H]1[C@H](C(C)(C)C)[C@@H](C(=O)O)N(C(=O)C2CCCCC2)[C@H]1c1ccccc1O [Example I-310] | 1000 to 10000 | < 1000 | +++ (≥350) | > 200 |  |  |  |  |
| COc1cccc(-c2cnc(OC)c(CN[C@H]3[C@H](C(C)(C)C)[C@@H](C(=O)O)N(C(=O)C4CCCCC4)[C@H]3c3ccccc3)c2)c1 [Example II-341, (2S,3S,4S,5S)-3-(tert-butyl)-1-(cyclohexanecarbonyl)-4-(((2-methoxy-5-(3-methoxyphenyl)pyridin-3-yl)methyl)amino)-5-phenylpyrrolidine-2-carboxylic acid] |  |  |  |  | 100 to 200 | < 1000 | +++ (≥350) | < 1000 |
| Cc1cc(C(F)(F)F)cc(N[C@@H]2[C@@H](C)[C@H](C(=O)O)N(C(=O)N(C(C)C)C(C)C)[C@@H]2c2ccccc2)n1 [II-11] | 1000 to 10000 | 1000 to 10000 | +++ (≥350) | < 100 |  |  |  |  |
| COc1ccc(C(F)(F)F)cc1CN[C@H]1[C@H](C(C)(C)C)[C@@H](C(=O)O)N(C(=O)[C@H](OC)c2ccccc2)[C@H]1c1ccccc1N(C)C [II-62] | 1000 to 10000 | 1000 to 10000 | +++ (≥350) | > 200 |  |  |  |  |
| COc1ccc(Cl)cc1CN[C@H]1[C@H](C(C)(C)C)[C@@H](C(=O)O)N(C(=O)[C@H](OC)c2ccccc2)[C@H]1c1ccccc1N(C)C [II-63] | 1000 to 10000 | 1000 to 10000 | +++ (≥350) | > 200 |  |  |  |  |
| COc1ccc(C(F)(F)F)cc1CN[C@@H]1[C@@H](C(C)(C)C)[C@H](C(=O)O)N(C(=O)[C@@H](OC)c2ccccc2)[C@@H]1c1ccccc1 [II-64] | > 10000 | 1000 to 10000 | ++ (≥150 and <350) | < 100 |  |  |  |  |
| COc1cc(C(F)(F)F)ccc1CN[C@H]1[C@H](C(C)(C)C)[C@@H](C(=O)O)N(C(=O)[C@@H](OC)c2ccccc2)[C@H]1c1ccccc1 [II-65] | 1000 to 10000 | 1000 to 10000 | +++ (≥350) | 100 to 200 |  |  |  |  |
| COc1cc(C(F)(F)F)ccc1CN[C@H]1[C@H](C(C)(C)C)[C@@H](C(=O)O)N(C(=O)[C@H]2CCCCO2)[C@H]1c1ccccc1 [II-81] | 1000 to 10000 | 1000 to 10000 | +++ (≥350) | 100 to 200 |  |  |  |  |
| COc1cc(C(F)(F)F)ccc1CN[C@@H]1[C@@H](C(C)(C)C)[C@H](C(=O)O)N(C(=O)[C@@H]2CCCCO2)[C@@H]1c1ccccc1 [II-82] | 1000 to 10000 | 1000 to 10000 | +++ (≥350) | 100 to 200 |  |  |  |  |
| COc1ncc(C(F)(F)F)cc1CN[C@H]1[C@H](C(C)(C)C)[C@@H](C(=O)O)N(C(=O)[C@H](OC)c2ccccc2)[C@H]1c1ccccc1 [II-83] | 1000 to 10000 | < 1000 | +++ (≥350) | > 200 |  |  |  |  |
| COc1cc(C(F)(F)F)ccc1CN[C@H]1[C@H](C(C)(C)C)[C@@H](C(=O)O)N(C(=O)[C@H](OC)c2ccccc2)[C@H]1c1cccnc1OC [II-84] | 1000 to 10000 | 1000 to 10000 | +++ (≥350) | 100 to 200 |  |  |  |  |
| COc1cc(C(F)(F)F)ccc1CN[C@H]1[C@H](C(C)(C)C)[C@@H](C(=O)O)N(C(=O)[C@H](OC)c2ccccc2)[C@H]1c1cccnc1N(C)C [II-87] | 1000 to 10000 | 1000 to 10000 | +++ (≥350) | 100 to 200 |  |  |  |  |
| COc1cc(Cl)ccc1CN[C@H]1[C@H](C(C)(C)C)[C@@H](C(=O)O)N(C(=O)C2CCCCC2)[C@H]1c1cccnc1OC [II-91] | 1000 to 10000 | 1000 to 10000 | +++ (≥350) | 100 to 200 |  |  |  |  |
